The NIST ThermoML archive (doi:10.1016/j.fluid.2014.07.039)
± gives the expanded uncertainty stated by the source.

Key:
[1] = 344.15 K; for mass density: Vibrating tube method; for surface tension liquid-gas: Pendant drop shape
[2] = 344.15 K, Liquid, pendant drop shape

Row | SMILES | mass density ([1]; 101.33 kPa, Gas) [kg/m3] | mass density ([1]; 101.3 kPa, Liquid) [kg/m3] | surface tension liquid-gas ([1]; Liquid) [mN/m] | interfacial tension ([2]; 100 kPa) [mN/m] | interfacial tension ([2]; 1000 kPa) [mN/m] | interfacial tension ([2]; 2000 kPa) [mN/m] | interfacial tension ([2]; 3000 kPa) [mN/m] | interfacial tension ([2]; 4000 kPa) [mN/m] | interfacial tension ([2]; 5000 kPa) [mN/m] | interfacial tension ([2]; 6000 kPa) [mN/m] | interfacial tension ([2]; 7000 kPa) [mN/m] | interfacial tension ([2]; 8000 kPa) [mN/m] | interfacial tension ([2]; 9000 kPa) [mN/m] | interfacial tension ([2]; 10000 kPa) [mN/m] | interfacial tension ([2]; 11000 kPa) [mN/m] | interfacial tension ([2]; 12000 kPa) [mN/m] | interfacial tension ([2]; 13000 kPa) [mN/m] | interfacial tension ([2]; 14000 kPa) [mN/m]
1 | O=C=O [carbon dioxide] | 1.563 ± 0.032 |  |  |  |  |  |  |  |  |  |  |  |  |  |  |  |  | 
2 | CCCCCCCCCCCC [dodecane] |  | 712.1 ± 0.22 | 20.72 ± 0.24 |  |  |  |  |  |  |  |  |  |  |  |  |  |  | 
3 | CCCCCCCCCCCC [dodecane] + O=C=O |  |  |  | 20.72 ± 0.02 | 18.54 ± 0.02 | 16.53 ± 0.02 | 14.74 ± 0.02 | 13.03 ± 0.02 | 11.31 ± 0.02 | 9.57 ± 0.02 | 7.82 ± 0.02 | 6.12 ± 0.02 | 4.57 ± 0.02 | 3.24 ± 0.02 | 2.26 ± 0.02 |  |  | 
4 | CCCCCCCCCCCCCC [tetradecane] |  | 727.1 ± 0.22 | 22.07 ± 0.25 |  |  |  |  |  |  |  |  |  |  |  |  |  |  | 
5 | CCCCCCCCCCCCCC [tetradecane] + O=C=O |  |  |  | 22.07 ± 0.02 | 20.41 ± 0.02 | 18.55 ± 0.02 | 16.7 ± 0.02 | 14.87 ± 0.02 | 13.06 ± 0.02 | 11.31 ± 0.02 | 9.61 ± 0.02 | 8 ± 0.02 | 6.48 ± 0.02 | 5.07 ± 0.02 | 3.78 ± 0.02 | 2.63 ± 0.02 | 1.64 ± 0.02 | 0.82 ± 0.02
6 | CCCCCCCCCCCCC [tridecane] |  | 720.2 ± 0.22 | 21.56 ± 0.24 |  |  |  |  |  |  |  |  |  |  |  |  |  |  | 
7 | CCCCCCCCCCCCC [tridecane] + O=C=O |  |  |  | 21.56 ± 0.02 | 19.68 ± 0.02 | 17.65 ± 0.02 | 15.67 ± 0.02 | 13.77 ± 0.02 | 11.94 ± 0.02 | 10.18 ± 0.02 | 8.52 ± 0.02 | 6.95 ± 0.02 | 5.49 ± 0.02 | 4.13 ± 0.02 | 2.89 ± 0.02 | 1.77 ± 0.02 | 0.78 ± 0.02 | 
